Results from patent US9839618B2, “Compositions and methods relating to proliferative diseases” (The Penn State Research Foundation, priority 2010, dated 2017).
Like-named read-outs stand apart in the source and are kept apart here.

Key:
[1] = test system: FF2441 normal human fibroblasts; assay: MTS assay viability IC50, normal fibroblasts; assay type: cell-based; conditions: read-out: IC50 Normal fibroblast FF2441
Method: (§1) The efficacy of leelamine to kill other cancer types is measured and the IC50 for cell lines derived from carcinomas of breast, lung, prostate, connective tissue, pancreas and colon determined. The MTS assay as described in Sharma, A. et al., Clin Cancer Res, 2009, 15:1674-85; and Madhunapantula, S. V. et al., Mol Cancer Ther, 2008, 7:1297-308 is used to establish the IC50 at 24, 48 and 72 hours of leelamine treatment for normal human epidermal melanocytes (FOM103), normal skin fibroblast cells (FF2441), normal skin keratinocytes (HFK) and compared to melanocytic lesion cells from the radial-, vertical- and metastatic melanoma stages. 5×10^3 cells per well in 100 μL of media are plated and grown in a 96-well plate for 48 to 72 hours and treated with either DMSO vehicle control or 0.62 to 40 μmol/L of leelamine for 24, 48 or 72 hours. IC50 values for each compound in μmol/L for respective cell lines are measured from three independent experiments using GraphPad Prism version 4.01 (GraphPad Software, La Jolla, Calif.). Leelamine is found to be not toxic to normal cells and effective to kill melanoma cells as well as non-melanoma cancer cells as shown in Table 1 in FIG. 20. Leelamine is 3- to 4-fold more specific at killing metastatic melanoma than normal cells, supporting cancer therapeutic utility at concentrations<2 μmol/L.
5×10^3 cells per well in 100 μL of media are plated and grown in a 96-well plate for 48 to 72 hours and treated with either DMSO vehicle control or 0.62 to 40 μmol/L of leelamine for 24, 48 or 72 hours. IC50 values for each compound in μmol/L for respective cell lines are measured from three independent experiments using GraphPad Prism version 4.01 (GraphPad Software, La Jolla, Calif.). […]
(§2) Dehydroabietylamine, its N-substituted derivatives and the corresponding dihydroabietylamine and its N-substituted derivatives are tested for their capability to inhibit cell growth of cancer cell lines, including melanoma (UACC 903, 1205Lu), breast (MCF-7), fibrosarcoma (HT-1080), colon (Caco-2), and prostate (PC-3) cancer cell lines. Viability and IC50 of normal human fibroblasts and cell lines from melanoma and other malignancies following treatment with all the agents are measured using the MTS assay (Promega, Madison, Wis.). Human fibroblast FF2441 cells, metastatic melanoma cell lines 1205 Lu and UACC 903 as well as cancer cell lines representing sarcoma (HT-1080), prostate (PC-3, LNCaP), breast (MCF-7) and lung (A-549) are maintained in DMEM (Invitrogen, Carlsbad, Calif.) supplemented with 10% FBS (Hyclone, Logan, Utah) in a 5% CO2 atmosphere, humidified 37° C. incubator. 5×10^3 cells per well in 100 μL of media are plated and grown in a 96-well plate for 48 to 72 h and treated with either DMSO vehicle control or 0.62 to 40 μmol/L for 24, 48 or 72 h. IC50 values for each compound in […] for respective cell lines are measured from three independent experiments using GraphPad Prism version 4.01 (GraphPad Software, La Jolla, Calif.). FIG. 52 is a graph showing IC50 values for leelamine and compounds 4a, 4b and 5a in treated fibroblasts (FF2441) compared to melanoma cells. Selectivity ratio here is defined as ratio of activity against fibroblasts compared to activity against melanoma cells. Leelamine is relatively selective with a ratio of >6 and >4 for UACC903 and 1205Lu melanoma cells. The selectivity ratio of compound 4a is ˜4 and ˜3 for UACC903 and 1205Lu and for compound 4b is ˜4 for both cell lines. The selectivity ratio of compound 5a is ˜4 for UACC903 and >2 for 1205Lu cells.

[2] = test system: 1205 Lu metastatic melanoma cells; assay: MTS assay viability IC50, 1205 Lu; assay type: cell-based, human
Method: as §1
(§3) 5×10^3 cells per well in 100 μL of media are plated and grown in a 96-well plate for 48 to 72 hours and treated with either DMSO vehicle control or 0.62 to 40 μmol/L of leelamine for 24, 48 or 72 hours. IC50 values for each compound in μmol/L for respective cell lines are measured from three independent experiments using GraphPad Prism version 4.01 (GraphPad Software, La Jolla, Calif.).
(§4) The IC50 and effect of liposomal preparations of leelamine on viability of normal human melanocytes, fibroblasts and melanoma cells UACC 903 and 1205 Lu are measured using the MTS assay (Promega, Madison, Wis.). Empty liposomes or liposomes containing abietic acid are used as controls. 5×10^3 cells per well in 100 μL of media are plated and grown in a 96-well plate for 48 or 72 hours for melanoma and normal cell lines, respectively. The cells are then treated with 0.62 to 40 μmol/L of liposome alone, a liposomal preparation of abietic acid, or with Nanolipolee-007 for 24 hours. IC50 values for each liposome in μmol/L for respective cell lines are measured from three independent experiments using GraphPad Prism version 4.01 (GraphPad Software, La Jolla, Calif.). Nanolipolee-007 retains the growth inhibitory activity of leelamine in killing melanoma cells in culture and specifically kills melanoma cells compared to normal cells, FIG. 24.
as §2, with “FIG. 52 is a graph showing IC50 values for leelamine and compounds 4a, 4b and 5a in treated fibroblasts (FF2441) compared to melanoma cells. Selectivity ratio here is defined as ratio of activity against fibroblasts compared to activity against melanoma cells. Leelamine is relatively selective with a ratio of >6 and >4 for UACC903 and 1205Lu melanoma cells. The selectivity ratio of compound 4a is ˜4 and ˜3 for UACC903 and 1205Lu and for compound 4b is ˜4 for both cell lines. The selectivity ratio of compound 5a is ˜4 for UACC903 and >2 for 1205Lu cells.” left out

[3] = test system: UACC 903 metastatic melanoma cells; assay: MTS assay viability IC50, UACC 903; assay type: cell-based, human
Method: as §1, §3, §4
as §2, with “FIG. 52 is a graph showing IC50 values for leelamine and compounds 4a, 4b and 5a in treated fibroblasts (FF2441) compared to melanoma cells. Selectivity ratio here is defined as ratio of activity against fibroblasts compared to activity against melanoma cells. Leelamine is relatively selective with a ratio of >6 and >4 for UACC903 and 1205Lu melanoma cells. The selectivity ratio of compound 4a is ˜4 and ˜3 for UACC903 and 1205Lu and for compound 4b is ˜4 for both cell lines. The selectivity ratio of compound 5a is ˜4 for UACC903 and >2 for 1205Lu cells.” left out

[4] = test system: melanoma cell lines (UACC 903, 1205Lu); assay: MTS assay, melanoma cell lines (cell line not given); assay type: cell-based, human; conditions: Homo sapiens; Example 8
Method: The mechanistic basis of leelamine's activity to inhibit melanoma cell growth is determined by examining the effect of leelamine on 1) cell viability using the MTS assay; 2) proliferation using a BrdU incorporation assay; 3) apoptosis using an assay for caspase-3/7 activity; and 4) cell cycle analysis. The MTS assay as described in Sharma, A. et al., Clin Cancer Res, 2009, 15:1674-85; and Madhunapantula, S. V. et al., Mol Cancer Ther, 2008, 7:1297-308 is used to assay cell viability. Rates of proliferation and apoptosis are measured by seeding 5×10^3 cells in 96-well plates, followed by treatment with 0.62 to 10 μmol/L of leelamine for 24 hours. Proliferating and apoptotic cells are quantified using a colorimetric cell proliferation ELISA BrdU kit (Roche diagnostics, Indianapolis, Ind.) or Apo-ONE Homogenous caspase-3/7 assay kit (Promega, Madison, Wis.), respectively, as described in Sharma, A. et al., Clin Cancer Res, 2009, 15:1674-85; and Madhunapantula, S. V. et al., Mol Cancer Ther, 2008, 7:1297-308.
as §2

[5] = Homo sapiens, 1205Lu, Table 4, read-out: IC50 Metastatic Melanoma Cell line 1205Lu
[6] = Homo sapiens, 1205Lu, Table 6, read-out: IC50 Metastatic melanoma 1205 Lu
[7] = Homo sapiens, UACC-903, Example 8, read-out: IC50 UACC 903
[8] = Homo sapiens, UACC-903, Table 4, read-out: IC50 Metastatic Melanoma Cell line UACC903
[9] = Homo sapiens, UACC-903, Table 6, read-out: IC50 Metastatic melanoma UACC 903
[10] = Homo sapiens, UACC-903, Table 7, read-out: IC50 (UACC903)
[11] = Table 4, read-out: IC50 Metastatic Melanoma Cell line 1205Lu
[12] = Table 4, read-out: IC50 Metastatic Melanoma Cell line UACC903
[13] = Homo sapiens, 1205Lu, Example 8, read-out: IC50 1205Lu

CC(C)C1=CC2=CCC3[C@](C)(CCC[C@@]3(C)C(N)=O)C2CC1 (stereo partly drawn) [Compound 3a, (1R,4aR)-1,4a-dimethyl-7-(propan-2-yl)-1,2,3,4,4a,4b,5,6,10,10a-decahydrophenanthrene-1-carboxamide]
IC50 ([1]; Table 6): > 100 µM
IC50 [2, 5]: 81.1 ± 2.09 µM
IC50 [2, 6]: 81.1 ± 2.09 µM
IC50 [3, 7]: 70 µM
IC50 [3, 8]: 70.1 ± 1.8 µM
IC50 [3, 9]: 70.1 ± 1.8 µM
IC50 [3, 10]: 70.1 µM

CC(C)c1ccc2c(c1)CCC1[C@](C)(CNCc3ccccc3)CCC[C@]21C (stereo partly drawn) [Compound 5d, N-benzyl-1-((1R,4aS)-7-isopropyl-1,4a-dimethyl-1,2,3,4,4a,9,10,10a-octahydrophenanthren-1-yl)methanamine]
IC50 [4]: 6 µM
IC50 [3, 8]: 6.05 ± 1.32 µM
IC50 [3, 9]: 6.05 µM
IC50 [3, 10]: 6.05 µM

CNC(=O)[C@]1(C)CCC[C@]2(C)C3CCC(C(C)C)=CC3=CCC21 (stereo partly drawn) [Compound 3b, (1R,4aR)-N,1,4a-trimethyl-7-(propan-2-yl)-1,2,3,4,4a,4b,5,6,10,10a-decahydrophenanthrene-1-carboxamide]
IC50 ([1]; Table 6): > 100 µM
IC50 [2, 6]: > 100 µM
IC50 [4]: > 100 µM
IC50 [3, 9]: > 100 µM
IC50 [3, 10]: > 100 µM

CC(C)c1ccc2c(c1)CCC1[C@](C)(CNC(=O)c3ccccc3)CCC[C@]21C (stereo partly drawn) [Compound 5c, N-(((1R,4aS)-7-isopropyl-1,4a-dimethyl-1,2,3,4,4a,9,10,10a-octahydrophenanthren-1-yl)methyl)benzamide]
IC50 [4]: > 100 µM
IC50 [3, 9]: > 100 µM
IC50 [3, 10]: > 100 µM

CC(C)C1C=C2C=CC3[C@](C)(CO)CCC[C@]3(C)C2CC1 (stereo partly drawn) [Compound 2b, [(1R,4aR)-1,4a-dimethyl-7-(propan-2-yl)-1,2,3,4,4a,4b,5,6,7,100a-decahydrophenanthren-1-yl]methanol]
IC50 ([1]; Table 4): > 100 µM
IC50 ([1]; Table 6): > 100 µM
IC50 ([2]; Example 8, read-out: IC50 1205Lu): 60 µM
IC50 [2, 11]: 60.4 ± 1.61 µM
IC50 ([2]; Table 6, read-out: IC50 Metastatic melanoma 1205 Lu): 60.4 ± 1.61 µM
IC50 ([3]; Example 8, read-out: IC50 UACC 903): 53 µM
IC50 [3, 12]: 52.6 ± 1.34 µM
IC50 ([3]; Table 6, read-out: IC50 Metastatic melanoma UACC 903): 52.6 ± 1.34 µM
IC50 ([3]; Table 7, read-out: IC50 (UACC903)): 52.6 µM

CCN(CC)C(=O)[C@]1(C)CCC[C@]2(C)C3CCC(C(C)C)=CC3=CCC21 (stereo partly drawn) [Compound 3c, (1R,4aR)-N,N-diethyl-1,4a-dimethyl-7-(propan-2-yl)-1,2,3,4,4a,4b,5,6,10,10a-decahydrophenanthrene-1-carboxamide]
IC50 [4]: > 100 µM

CCOC[C@]1(C)CCC[C@]2(C)C3CCC(C(C)C)C=C3C=CC12 (some centres unmarked) [Compound 2a]
IC50 ([1]; Table 4): > 100 µM
IC50 [2, 11]: > 100 µM
IC50 [3, 12]: > 100 µM

CC(C)c1ccc2c(c1)CCC1[C@](C)(CNC(c3ccccc3)(c3ccccc3)c3ccccc3)CCC[C@]21C (stereo partly drawn) [Compound 5e, {[(1R,4aS)-1,4a-dimethyl-7-(propan-2-yl)-1,2,3,4,4a,9,10,10a-octahydrophenanthren-1-yl]methyl}(triphenylmethyl)amine]
IC50 [4]: > 100 µM

CC(=O)NC[C@]1(C)CCC[C@]2(C)c3ccc(C(C)C)cc3CCC12 (stereo partly drawn) [Compound 5b, N-{[(1R,4aS)-1,4a-dimethyl-7-(propan-2-yl)-1,2,3,4,4a,9,10,10a-octahydrophenanthren-1-yl]methyl}acetamide]
IC50 ([1]; Table 6): > 100 µM
IC50 [2, 13]: > 50 µM
IC50 [2, 5]: > 50 µM
IC50 [3, 7]: 89 µM
IC50 [3, 9]: 89.4 ± 3.31 µM
IC50 [3, 10]: 89.4 µM

CCN(CC)C[C@]1(C)CCC[C@]2(C)C3CCC(C(C)C)=CC3=CCC12 (stereo partly drawn) [Compound 4c, {[(1R,4aR)-1,4a-dimethyl-7-(propan-2-yl)-1,2,3,4,4a,4b,5,6,10,10a-decahydrophenanthren-1-yl]methyl}diethylamine]
IC50 ([1]; Table 6): > 100 µM
IC50 [2, 13]: 24.3 µM
IC50 [2, 5]: 24.3 ± 2.5 µM
IC50 [2, 6]: 24.3 ± 2.5 µM
IC50 [3, 7]: 24.4 µM
IC50 [3, 8]: 24.4 ± 1.33 µM
IC50 [3, 9]: 24.4 ± 1.33 µM
IC50 [3, 10]: 24.4 µM

CC(C)c1ccc2c(c1)CCC1[C@](C)(CNC(=O)C(Br)(Br)Br)CCC[C@]21C (stereo partly drawn) [GPR-5L, N-{[(1R,4aS)-1,4a-dimethyl-7-(propan-2-yl)-1,2,3,4,4a,9,10,10a-octahydrophenanthren-1-yl]methyl}-2,2,2-tribromoacetamide]
IC50 [2, 6]: 1.88 ± 0.21 µM
IC50 [3, 9]: 1.01 ± 0.08 µM
IC50 [3, 10]: 1.01 µM
